ChEMBL document CHEMBL1795231, “Inhibitors of histone demethylases” (Bioorg Med Chem, 2011)

What was measured:
[1] = target: Lysine-specific histone demethylase 1A (Homo sapiens, UniProt O60341)
[2] = target: T1, Lysine-specific demethylase 4E (Homo sapiens, UniProt B2RXH2)
T1 sequence (B2RXH2 whole entry): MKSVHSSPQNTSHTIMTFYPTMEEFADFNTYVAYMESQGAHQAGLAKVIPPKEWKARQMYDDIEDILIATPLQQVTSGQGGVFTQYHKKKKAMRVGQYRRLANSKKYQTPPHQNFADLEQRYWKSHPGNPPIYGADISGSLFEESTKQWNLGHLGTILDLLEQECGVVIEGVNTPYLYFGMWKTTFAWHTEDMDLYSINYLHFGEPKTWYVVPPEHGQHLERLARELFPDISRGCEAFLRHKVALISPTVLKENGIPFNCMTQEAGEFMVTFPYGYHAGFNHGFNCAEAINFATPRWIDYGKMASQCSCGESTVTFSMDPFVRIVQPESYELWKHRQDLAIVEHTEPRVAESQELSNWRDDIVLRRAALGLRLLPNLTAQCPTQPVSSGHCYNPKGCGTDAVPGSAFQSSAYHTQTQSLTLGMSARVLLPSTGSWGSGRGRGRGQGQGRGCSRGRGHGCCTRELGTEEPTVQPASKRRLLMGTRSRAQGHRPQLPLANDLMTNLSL

[3] = target: T1, Lysine-specific demethylase 4E; remark: listed apart in the source
[4] = target: Egl nine homolog 1 (Homo sapiens, UniProt Q9GZT9); experiment: Inhibition of human PHD2
[5] = target: Hypoxia-inducible factor 1-alpha inhibitor (Homo sapiens, UniProt Q9NWT6); experiment: Inhibition of asparaginyl hydroxylase factor-inhibiting-HIF
[6] = target: T1, Lysine-specific demethylase 4E; remark: listed apart in the source
[7] = target: T1, Lysine-specific demethylase 4E; remark: listed apart in the source
[8] = target: T1, Lysine-specific demethylase 4E; remark: listed apart in the source
[9] = target: T1, Lysine-specific demethylase 4E; experiment: Uncompetitive inhibition of JMJD2E relative to alpha-ketoglutarate

Chain of Hypoxia-inducible factor 1-alpha inhibitor (Q9NWT6 whole entry): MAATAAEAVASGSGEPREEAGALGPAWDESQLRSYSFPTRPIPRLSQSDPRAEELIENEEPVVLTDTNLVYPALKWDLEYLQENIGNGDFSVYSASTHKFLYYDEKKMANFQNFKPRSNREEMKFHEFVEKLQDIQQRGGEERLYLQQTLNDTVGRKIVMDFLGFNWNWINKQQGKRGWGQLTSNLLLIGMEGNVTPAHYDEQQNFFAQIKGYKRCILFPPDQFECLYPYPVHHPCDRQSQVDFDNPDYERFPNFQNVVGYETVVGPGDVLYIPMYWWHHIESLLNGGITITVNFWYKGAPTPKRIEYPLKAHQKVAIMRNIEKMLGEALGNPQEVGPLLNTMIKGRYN
Chain of Egl nine homolog 1 (Q9GZT9 whole entry): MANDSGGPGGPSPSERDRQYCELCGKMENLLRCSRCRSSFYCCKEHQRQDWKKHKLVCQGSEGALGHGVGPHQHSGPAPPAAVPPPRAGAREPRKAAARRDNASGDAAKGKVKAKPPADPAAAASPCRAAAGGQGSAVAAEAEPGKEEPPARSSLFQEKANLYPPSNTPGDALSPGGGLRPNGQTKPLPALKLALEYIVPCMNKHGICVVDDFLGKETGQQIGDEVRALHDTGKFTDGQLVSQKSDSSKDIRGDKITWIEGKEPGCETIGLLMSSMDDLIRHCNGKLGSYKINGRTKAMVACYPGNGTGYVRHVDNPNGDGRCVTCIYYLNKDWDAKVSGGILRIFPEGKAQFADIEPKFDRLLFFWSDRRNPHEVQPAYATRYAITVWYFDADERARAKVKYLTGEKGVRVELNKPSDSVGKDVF

SMILES: CC(C)COc1ccc(Cl)cc1C1CC1N (stereo not given)
- IC50 [1]: 9 µM

SMILES: O=C(O)C(=O)N[C@H](CSCc1ccccc1)C(=O)O
- IC50 [2]: 200 µM

SMILES: COc1ccccc1CSC[C@@H](NC(=O)C(=O)O)C(=O)O
- IC50 [2]: 200 µM

SMILES: O=C(NO)c1cccc(O)c1
- IC50 [3]: 4.8 µM

SMILES: O=C(O)C(=O)N[C@H](CCc1ccccc1)C(=O)O
- IC50 [4]: > 1 mM
- Ki [5]: 83 µM

SMILES: CC(C)(C)c1ccc(S(=O)(=O)Oc2ccc(C[C@@H](NC(=O)C(=O)O)C(=O)O)cc2)cc1
- IC50 [2]: 5 µM

SMILES: O=C(O)C(=O)N[C@H](Cc1ccc(OS(=O)(=O)c2ccc(F)cc2)cc1)C(=O)O
- IC50 [2]: 5 µM

SMILES: O=C(O)C(=O)N[C@H](Cc1ccc(OS(=O)(=O)c2ccc(Br)cc2)cc1)C(=O)O
- IC50 [6]: 5.4 µM

SMILES: O=c1cc(-c2ccccc2)oc2cc(O)c(O)c(O)c12 [BAICALEIN]
- IC50 [7]: 3 µM
- Ki [8]: 4.33 µM

SMILES: C[C@@](Cc1ccc(O)c(O)c1)(NN)C(=O)O [CARBIDOPA]
- Ki [9]: 1980 nM

SMILES: Oc1ccc(C2CNCCc3c2cc(O)c(O)c3Cl)cc1 (stereo not given) [FENOLDOPAM]
- Ki [8]: 1.92 µM

SMILES: CC1(C)CCC2=C(O1)c1ccccc1C(=O)C2=O [LAPACHONE]
- IC50 [7]: 3 µM
- Ki [8]: 3.55 µM
